{"source": "paper PMC11678777", "about": "“Haloperidol-Induced Catalepsy and Its Correlations with Acetylcholinesterase Activity in Different Brain Structures of Mice” (Neurology International, 2024)", "biological_target": "T1, commercial enzyme AChE from Electrophorus electricus (Electrophorus electricus, UniProt O42275)", "T1 construct": "commercial enzyme (Sigma), native", "T1 sequence (O42275 24-633)": "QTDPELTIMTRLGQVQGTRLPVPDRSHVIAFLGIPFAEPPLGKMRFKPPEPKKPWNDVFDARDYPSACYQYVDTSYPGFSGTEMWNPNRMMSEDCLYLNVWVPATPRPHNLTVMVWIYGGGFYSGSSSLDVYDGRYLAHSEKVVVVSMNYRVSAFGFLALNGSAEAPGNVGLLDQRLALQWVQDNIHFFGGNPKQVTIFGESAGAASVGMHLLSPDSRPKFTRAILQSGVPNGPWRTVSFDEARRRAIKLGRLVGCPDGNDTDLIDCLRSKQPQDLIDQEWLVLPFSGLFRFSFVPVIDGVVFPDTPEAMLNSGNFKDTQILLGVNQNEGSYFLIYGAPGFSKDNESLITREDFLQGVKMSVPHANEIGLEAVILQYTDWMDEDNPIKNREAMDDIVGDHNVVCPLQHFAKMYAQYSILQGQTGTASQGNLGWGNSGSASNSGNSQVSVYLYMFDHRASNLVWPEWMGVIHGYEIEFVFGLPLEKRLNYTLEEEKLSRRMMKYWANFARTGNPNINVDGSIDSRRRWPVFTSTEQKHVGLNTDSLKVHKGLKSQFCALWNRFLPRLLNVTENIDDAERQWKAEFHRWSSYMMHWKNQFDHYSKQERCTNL", "assay": "Ellman assay, […] nm, 96-well plate", "type": "biochemical", "details": "AChE 1 U/mL; phosphate buffer 0.1 mol/L pH 8.0; 10 µL of 20 mmol/L acetylthiocholine iodide in 200 µL; 10 min preincubation, room temperature; Haldol formulation", "data": [{"smiles": "O=C(CCCN1CCC(O)(c2ccc(Cl)cc2)CC1)c1ccc(F)cc1", "note": "[Haloperidol]", "values": [{"measurement": "dose-dependent inhibition", "value": "Hal inhibited commercial AChE activity in a dose-dependent manner"}]}]}
